# Key:
# Format in all cases: cell-based
# [1] = system: Prevotella buccae; experiment: MIC by agar dilution, drug-resistant isolates; settings: 4 isolates
# Experimental: (§1) Antimicrobial activity was determined by agar dilution using the Clinical and Laboratory Standards Institute (CLSI) recommended procedure.
# (§2) The compounds were tested in serial two-fold dilutions and the minimum inhibitory concentration (MIC) was determined as the lowest concentration of the compound that inhibited visible growth. Gepotidacin was tested against 333 gram-negative anaerobic and 203 gram-positive anaerobic isolates collected from clinical samples in North America and Europe from 2000 to 2017; the majority collected from 2013 to 2016.
# (§3) Additional analysis was performed from the results of the study described in Method 1 above, to determine the in vitro activity of gepotidacin against gram-negative and gram-positive anaerobic organisms with resistance to ceftriaxone, clindamycin, imipenem, metronidazole, moxifloxacin and piperacillin/tazobactam.
# [2] = system: Porphyromonas, non-speciated; experiment: MIC by agar dilution, drug-resistant isolates; settings: 1 isolate
# Experimental: as §1, §2, §3
# [3] = system: Veillonella, non-speciated; experiment: MIC by agar dilution, drug-resistant isolates
# Experimental: as §1, §2, §3
# [4] = system: Lactobacillus, non-speciated; experiment: MIC by agar dilution, drug-resistant isolates
# Experimental: as §1, §2, §3
# [5] = system: Bacteroides caccae; experiment: MIC by agar dilution, drug-resistant isolates
# Experimental: as §1, §2, §3
# [6] = system: Bacteroides uniformis; experiment: MIC by agar dilution, drug-resistant isolates
# Experimental: as §1, §2, §3
# [7] = system: Bacteroides thetaiotaomicron; experiment: MIC by agar dilution, drug-resistant isolates
# Experimental: as §1, §2, §3
# [8] = system: Porphyromonas levii; experiment: MIC by agar dilution, drug-resistant isolates; settings: metronidazole R; 1 isolate
# Experimental: as §1, §2, §3
# [9] = system: Fusobacterium necrophorum; experiment: MIC by agar dilution, drug-resistant isolates; settings: clindamycin R; 1 isolate
# Experimental: as §1, §2, §3
# [10] = system: Eubacterium nodatum; experiment: MIC by agar dilution, drug-resistant isolates; settings: metronidazole R; 1 isolate
# Experimental: as §1, §2, §3
# [11] = system: Veillonella parvula; experiment: MIC by agar dilution, drug-resistant isolates
# Experimental: as §1, §2, §3
# [12] = system: Fusobacterium, non-speciated; experiment: MIC by agar dilution, drug-resistant isolates; settings: 1 isolate
# Experimental: as §1, §2, §3
# [13] = system: Bacteroides fragilis; experiment: MIC by agar dilution, drug-resistant isolates
# Experimental: as §1, §2, §3
# [14] = system: Bacteroides ovatus; experiment: MIC by agar dilution, drug-resistant isolates
# Experimental: as §1, §2, §3
# [15] = system: Eubacterium limosum; experiment: MIC by agar dilution, drug-resistant isolates; settings: moxifloxacin R; 2 isolates
# Experimental: as §1, §2, §3
# [16] = system: Bifidobacterium pseudocatenulatum; experiment: MIC by agar dilution, drug-resistant isolates; settings: clindamycin R; 1 isolate
# Experimental: as §1, §2, §3
# [17] = system: Bacteroides stercoris; experiment: MIC by agar dilution, drug-resistant isolates; settings: ceftriaxone R, 2 isolates
# Experimental: as §1, §2, §3
# [18] = system: Bacteroides vulgatus; experiment: MIC by agar dilution, drug-resistant isolates
# Experimental: as §1, §2, §3
# [19] = system: Bifidobacterium breve; experiment: MIC by agar dilution, drug-resistant isolates; settings: moxifloxacin R; 1 isolate
# Experimental: as §1, §2, §3
# [20] = system: Lactobacillus gasseri; experiment: MIC by agar dilution, drug-resistant isolates; settings: clindamycin R; 2 isolates
# Experimental: as §1, §2, §3
# [21] = system: Bifidobacterium adolescentis; experiment: MIC by agar dilution, drug-resistant isolates; settings: moxifloxacin R; 1 isolate
# Experimental: as §1, §2, §3
# [22] = system: Prevotella melaninogenica; experiment: MIC by agar dilution, drug-resistant isolates; settings: 1 isolate
# Experimental: as §1, §2, §3
# [23] = system: Peptostreptococcus anaerobius; experiment: MIC by CLSI agar dilution, Example 6 Method 1; settings: for Gepotidacin MIC range: 3 isolates
# Experimental: as §1, §2
# (§4) Ceftriaxone, clindamycin, imipenem, metronidazole, moxifloxacin and piperacillin/tazobactam were included as comparators.
# as §3
# [24] = system: Prevotella spp.; experiment: MIC by CLSI agar dilution, Example 6 Method 1
# Experimental: as §1, §2, §4, §3
# [25] = system: Lactobacillus spp.; experiment: MIC by CLSI agar dilution, Example 6 Method 1
# Experimental: as §1, §2, §4, §3
# [26] = system: Fusobacterium spp.; experiment: MIC by CLSI agar dilution, Example 6 Method 1
# Experimental: as §1, §2, §4, §3
# [27] = system: Porphyromonas spp.; experiment: MIC by CLSI agar dilution, Example 6 Method 1; settings: 26 isolates, read-out: Gepotidacin MIC90
# Experimental: as §1, §2, §4, §3
# [28] = system: Bifidobacterium spp.; experiment: MIC by CLSI agar dilution, Example 6 Method 1
# Experimental: as §1, §2, §4, §3
# [29] = system: Clostridium difficile; experiment: MIC by CLSI agar dilution, Example 6 Method 1
# Experimental: as §1, §2, §4, §3
# [30] = system: Bacteroides spp.; experiment: MIC by CLSI agar dilution, Example 6 Method 1; settings: for Gepotidacin MIC range: agar dilution
# Experimental: as §1, §2, §4, §3
# [31] = system: Sutterella wadsworthensis; experiment: MIC by CLSI agar dilution, Example 6 Method 1
# Experimental: as §1, §2, §4, §3
structure (smiles),measurement,setting,value
"O=c1ccc2ncc(=O)n3c2n1C[C@H]3CN1CCC(NCc2cc3c(cn2)OCCC3)CC1 [gepotidacin, (2R)-2-({4-[(3,4-dihydro-2H-pyrano[2,3-c]pyridin-6-ylmethyl)amino]-1-piperidinyl}methyl)-1,2-dihydro-3H,8H-2a,5,8a-triazaacenaphthylene-3,8-dione]",Gepotidacin MIC range,[1]; ceftriaxone R,0.25 to 2 µg/mL
same,Gepotidacin MIC range,[1]; clindamycin R,0.25 to 4 µg/mL
same,Gepotidacin MIC range,[2]; ceftriaxone R,0.125 µg/mL
same,Gepotidacin MIC range,[2]; clindamycin R,0.06 µg/mL
same,Gepotidacin MIC range,[2]; imipenem R,0.125 µg/mL
same,Gepotidacin MIC range,"[3]; clindamycin R, 4 isolates",0.125 µg/mL
same,Gepotidacin MIC range,"[3]; moxifloxacin R, 1 isolate",≤0.015 µg/mL
same,Gepotidacin MIC range,"[4]; clindamycin R, 1 isolate",0.03 µg/mL
same,Gepotidacin MIC range,"[4]; imipenem R, 9 isolates",0.03 to 1 µg/mL
same,MIC,"[5]; Bacteroides caccae, 1 drug-resistant isolate",8 µg/mL
same,Gepotidacin MIC range,"[5]; ceftriaxone R, 2 isolates",0.05 to 8 µg/mL
same,Gepotidacin MIC range,"[5]; clindamycin R, 1 isolate",8 µg/mL
same,Gepotidacin MIC range,"[5]; moxifloxacin R, 1 isolate",0.5 µg/mL
same,Gepotidacin MIC range,"[6]; ceftriaxone R, 3 isolates",1 to 2 µg/mL
same,Gepotidacin MIC range,"[6]; clindamycin R, 1 isolate",1 µg/mL
same,Gepotidacin MIC range,"[6]; moxifloxacin R, 1 isolate",1 µg/mL
same,Gepotidacin MIC range,"[7]; ceftriaxone R, 43 isolates",0.5 to 16 µg/mL
same,Gepotidacin MIC range,"[7]; clindamycin R, 21 isolates",0.5 to 8 µg/mL
same,Gepotidacin MIC range,"[7]; moxifloxacin R, 6 isolates",0.5 to 8 µg/mL
same,Gepotidacin MIC range,[8],≤0.015 µg/mL
same,Gepotidacin MIC range,[9],0.25 µg/mL
same,Gepotidacin MIC range,[10],0.125 µg/mL
same,Gepotidacin MIC range,"[11]; ceftriaxone R, 1 isolate",≤0.015 µg/mL
same,Gepotidacin MIC range,"[11]; clindamycin R, 1 isolate",0.125 µg/mL
same,Gepotidacin MIC range,"[11]; moxifloxacin R, 2 isolates",≤0.015 to 0.03 µg/mL
same,Gepotidacin MIC range,"[11]; pip/tazo R, 1 isolate",0.03 µg/mL
same,Gepotidacin MIC range,[12]; ceftriaxone R,2 µg/mL
same,Gepotidacin MIC range,[12]; clindamycin R,2 µg/mL
same,Gepotidacin MIC range,"[13]; ceftriaxone R, 35 isolates",0.25 to 32 µg/mL
same,Gepotidacin MIC range,"[13]; clindamycin R, 22 isolates",≤0.015 to 32 µg/mL
same,Gepotidacin MIC range,"[13]; imipenem R, 1 isolate",0.5 µg/mL
same,Gepotidacin MIC range,"[13]; moxifloxacin R, 19 isolates",0.25 to 32 µg/mL
same,Gepotidacin MIC range,"[13]; pip/tazo R, 2 isolates",0.5 to 4 µg/mL
same,Gepotidacin MIC range,"[14]; ceftriaxone R, 8 isolates",1 to 4 µg/mL
same,Gepotidacin MIC range,"[14]; clindamycin R, 4 isolates",1 to 4 µg/mL
same,Gepotidacin MIC range,"[14]; moxifloxacin R, 2 isolates",1 to 4 µg/mL
same,Gepotidacin MIC range,[15],0.25 to 0.5 µg/mL
same,Gepotidacin MIC range,[16],4 µg/mL
same,Gepotidacin MIC range,[17],0.12 to 1 µg/mL
same,Gepotidacin MIC range,"[18]; ceftriaxone R, 7 isolates",≤0.015 to 4 µg/mL
same,Gepotidacin MIC range,"[18]; clindamycin R, 4 isolates",≤0.015 to 2 µg/mL
same,Gepotidacin MIC range,"[18]; moxifloxacin R, 3 isolates",0.25 to 4 µg/mL
same,Gepotidacin MIC range,[19],0.5 µg/mL
same,Gepotidacin MIC range,[20],0.5 to 1 µg/mL
same,Gepotidacin MIC range,[21],0.25 µg/mL
same,Gepotidacin MIC range,[22]; ceftriaxone R,0.25 µg/mL
same,Gepotidacin MIC range,[22]; clindamycin R,0.25 µg/mL
same,MIC90,"[23]; Peptostreptococcus anaerobius, 25 isolates, read-out: Gepotidacin MIC90",0.03 µg/mL
same,Gepotidacin MIC range,[23]; clindamycin R,≤0.015 to 0.03 µg/mL
same,Gepotidacin MIC range,[23]; moxifloxacin R,0.03 µg/mL
same,MIC90,"[24]; Prevotella, 30 isolates, read-out: Gepotidacin MIC90",4 µg/mL
same,Gepotidacin MIC range,"[24]; ceftriaxone R, 6 isolates",0.25 to 2 µg/mL
same,Gepotidacin MIC range,"[24]; clindamycin R, 7 isolates",0.25 to 4 µg/mL
same,MIC90,"[25]; Lactobacillus, 91 isolates, read-out: Gepotidacin MIC90",1 µg/mL
same,Gepotidacin MIC range,"[25]; clindamycin R, 3 isolates",0.03 to 1 µg/mL
same,Gepotidacin MIC range,"[25]; imipenem R, 27 isolates",0.03 to 1 µg/mL
same,MIC90,"[26]; Fusobacterium, 25 isolates, read-out: Gepotidacin MIC90",2 µg/mL
same,Gepotidacin MIC range,"[26]; clindamycin R, 2 isolates",0.25 to 2 µg/mL
same,MIC90,[27],1 µg/mL
same,MIC90,"[28]; Bifidobacterium, 26 isolates, read-out: Gepotidacin MIC90",0.5 µg/mL
same,Gepotidacin MIC range,"[28]; moxifloxacin R, 3 isolates",0.125 to 0.5 µg/mL
same,Gepotidacin MIC range,"[29]; Clostridioides difficile ceftriaxone R, 48 isolates",0.5 to 4 µg/mL
same,Gepotidacin MIC range,"[29]; Clostridioides difficile clindamycin R, 23 isolates",0.5 to 2 µg/mL
same,Gepotidacin MIC range,"[29]; Clostridioides difficile imipenem R, 2 isolates",1 µg/mL
same,Gepotidacin MIC range,"[29]; Clostridioides difficile moxifloxacin R, 37 isolates",0.5 to 8 µg/mL
same,MIC90,"[29]; Clostridioides difficile, 100 isolates, read-out: Gepotidacin MIC90",2 µg/mL
same,MIC90,"[30]; Bacteroides, 191 isolates, read-out: Gepotidacin MIC90",4 µg/mL
same,Gepotidacin MIC range,"[30]; ceftriaxone R, 100 isolates",≤0.015 to 32 µg/mL
same,Gepotidacin MIC range,"[30]; clindamycin R, 53 isolates",≤0.015 to 32 µg/mL
same,Gepotidacin MIC range,"[30]; moxifloxacin R, 32 isolates",0.25 to 32 µg/mL
same,MIC90,"[31]; Sutterella wadsworthensis, 10 isolates, read-out: Gepotidacin MIC90",1 µg/mL
same,Gepotidacin MIC range,"[31]; metronidazole R, 4 isolates",0.5 to 1 µg/mL

# Source: patent US20220184071A1, “GEPOTIDACIN FOR USE IN THE TREATMENT OF BACTERIAL URINARY TRACT INFECTIONS” (GlaxoSmithKline Intellectual Property Development Limited, priority 2019, published 2022)
